Assay results reported in BindingDB's records for doi:10.1016/j.bmcl.2009.05.071 (Astrazeneca, 2009).

Target: T1, Procathepsin L [114-333,T223A] (Homo sapiens, UniProt P07711, T223A)
T1 construct: 114-333
Assay: Cathepsin Inhibition Assay
Conditions: pH 7; 37 °C
Method: IC50 values for inhibition of Cathepsins were determined from dose dependent inhibition of cleavage of fluorogenic, AMC-tagged, peptide substrates.

T1 sequence (P07711 114-333 T223A): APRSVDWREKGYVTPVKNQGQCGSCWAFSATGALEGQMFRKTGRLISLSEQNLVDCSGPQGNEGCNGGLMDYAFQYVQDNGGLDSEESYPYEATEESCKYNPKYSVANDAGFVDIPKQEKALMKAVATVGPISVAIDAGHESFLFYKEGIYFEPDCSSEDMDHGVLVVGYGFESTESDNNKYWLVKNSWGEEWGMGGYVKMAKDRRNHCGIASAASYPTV

SMILES	IC50 [nM]
Cn1nc(C(C)(C)C)cc1C(=O)N[C@@H](Cc1cccc(Cl)c1)C(=O)NCC#N [Dipeptidyl nitrile inhibitor, 25]	13
N#CCNC(=O)[C@H](Cc1cccc(Cl)c1)NC(=O)c1ccccc1 [Dipeptidyl nitrile inhibitor, 1]	251
